Results taken from patent publication US4954483A, “Carboxylic acid ester derivatives or deglucoteicoplanin” (Gruppo Lepetit, S.p.A., priority 1984, dated 1990).

Key:
[1] = Solubility characteristics
[2] = Potentiometric titration in methylcellosolve/water 4:1 (pKa, pH1/2); type: physicochemical; settings: methylcellosolve/water 4:1 (v/v), excess 0.01 M HCl, titrated with 0.01 M NaOH
Description: ^(c) the samples are dissolved in methylcellosolve ®/water 4:1
(v/v), an excess of 0.01 M hydrogen chloride in the same mixture is added
thereto and the resulting solution is titrated with 0.01 M NaOH in the […]

E. coli SKF 12140 = test: MIC, standard agar-dilution test; type: cell-based; settings: inoculum about 10^4 CFU/ml
Description: (§1) Isosensitest broth (Oxoid) and Todd-Hewitt broth (Difco) are used for growing staphylococci and streptococci, respectively. Broth cultures are diluted so that the final inoculum is about 10^4 colony forming units/ml (CFU/ml).

S. aureus ATCC 6538 = test: MIC, standard agar-dilution test; type: cell-based; settings: inoculum about 10^4 CFU/ml, 18-24 h at 37° C.
Description: as §1

[3] = test system: S. epidermidis ATCC 12228; test: MIC, standard agar-dilution test; type: cell-based; settings: inoculum about 10^4 CFU/ml
Description: as §1

S. faecalis ATCC 7080 = test: MIC, standard agar-dilution test; type: cell-based; settings: inoculum about 10^4 CFU/ml
Description: as §1

S. pneumoniae UC 41 = test: MIC, standard agar-dilution test; type: cell-based; settings: inoculum about 10^4 CFU/ml
Description: as §1

[4] = test system: S. pyogenes C 203 SKF 13400; test: MIC, standard agar-dilution test; type: cell-based; settings: Todd-Hewitt broth, inoculum about 10^4 CFU/ml
Description: as §1

S. aureus TOUR = test: MIC, standard agar-dilution test; type: cell-based
Text: Isosensitest broth (Oxoid) and Todd-Hewitt broth (Difco) are used for growing staphylococci and streptococci, respectively. […]

[5] = S. aureus TOUR + 30% bovine serum

Compound	pKa [2]	MIC (E. coli SKF 12140) [µg/mL]	MIC (S. aureus ATCC 6538) [µg/mL]	MIC [3] [µg/mL]	MIC (S. faecalis ATCC 7080) [µg/mL]	MIC (S. pneumoniae UC 41) [µg/mL]	MIC [4] [µg/mL]	MIC (S. aureus TOUR; S. aureus TOUR (10^3 CFU/ml)) [µg/mL]	MIC (S. aureus TOUR; S. aureus TOUR (10^6 CFU/ml)) [µg/mL]	MIC (S. aureus TOUR; [5]) [µg/mL]	further results
CC(=O)N[C@@H]1[C@@H](O[C@H]2c3ccc(c(Cl)c3)Oc3cc4cc(c3O)Oc3ccc(cc3Cl)C[C@@H]3NC(=O)[C@@H](N)c5ccc(O)c(c5)Oc5cc(O)cc(c5)[C@@H](NC3=O)C(=O)N[C@@H]4C(=O)N[C@@H]3C(=O)N[C@H]2C(=O)N[C@@H](C(=O)O)c2cc(O)cc(O)c2-c2cc3ccc2O)O[C@@H](CO)[C@H](O)[C@H]1O (stereo in doubt) [Antibiotic L 17046]											solubility in dimethylformamide, dimethylsulfoxide, propyleneglycol and methylcellosolve [1]: freely soluble; solubility in methanol [1]: slightly soluble; solubility in water ([1]; water at pH>8.0): freely soluble
N[C@H]1C(=O)N[C@@H]2Cc3ccc(c(Cl)c3)Oc3cc4cc(c3O)Oc3ccc(cc3Cl)[C@@H](O)[C@@H]3NC(=O)[C@H](NC(=O)[C@@H]4NC(=O)[C@@H](NC2=O)c2cc(O)cc(c2)Oc2cc1ccc2O)c1ccc(O)c(c1)-c1c(O)cc(O)cc1[C@@H](C(=O)O)NC3=O [Antibiotic L 17392, deglucoteicoplanin]											solubility in aqueous methanol, ethanol and acetone [1]: soluble; solubility in ethyl alcohol and dimethylformamide [1]: slightly soluble; solubility in water ([1]; water at a pH higher than 9): soluble
deglucoteicoplanin 4-chloro-butyl ester [Example 9]	6.60										
N-benzyloxycarbonyl deglucoteicoplanin [Example 4]	5.02										
deglucoteicoplanin n-octyl ester, hydrochloride [Example 2]	6.82	> 100	0.2	0.1	0.4	0.05	0.05	0.2	0.8	0.8	
deglucoteicoplanin benzyl ester, hydrochloride [Example 3]	6.67	12.5	0.4	0.1	0.4	0.2	0.05	0.4	0.4	0.8	
deglucoteicoplanin n-butyl ester, hydrochloride [Example 1]	6.57	50	0.05	0.05	0.2	0.1	0.1	0.1	0.4	0.4	
